# Experimental data: PMC7269146, “Jingzhaotoxin-X, a gating modifier of Kv4.2 and Kv4.3 potassium channels purified from the venom of the Chinese tarantula Chilobrachys jingzhao” (The Journal of Venomous Animals and Toxins Including …, 2020)
# Where a SMILES comes first, the peptide text is derived from it. Bridges are numbered along the chain shown (N, C = ends).
# Tests used:
# Format in all cases: cell-based
# Kv1.3 = test: microelectrode voltage-clamp, Xenopus laevis oocytes, Kv1.3; conditions: 10 μM, 300-ms depolarization to +20 mV from -90 mV, pH 7.5, 19-23°C, n = 3
# Protocol: (§1) Briefly, plasmids were linearized, and transcription was carried out according to the standardized protocol. Afterwards, the capped cRNAs that encoded the related ion channels were prepared. To conduct transcription in vitro, firstly, NotL was utilized to linearize plasmids pCI that contained both Kv1.1 (Accession: NM_010595.3) and Kv2.1 (Accession: AF026005.1), whereas SphI was adopted to linearize plasmid PcDNA3 containing Kv1.2 (Accession: NM_012970.3) gene. […] Thereafter, the linearized plasmids were used as the templates to synthesize cRNAs in vitro using the large-scale T7 mMESSAGE mMACHINE transcription kit (Ambion, USA).
# (§2) A mature female X. laevis was placed on the ice for anesthesia, and then the Xenopus laevis oocytes at stage IV-VI were extracted. Subsequently, those extracted oocytes were treated by collagenase (1 mg/mL) contained within the calcium-depleted ND96 solution (containing 96 mM NaCl, 10 mM HEPES, 1 mM MgCl2, and 2 mM KCl) for defolliculation. […]
# (§3) Firstly, the effects of JZTX-X on the isoforms of potassium channels (including Kv1.1-1.3, Kv2.1, as well as Kv4.2-4.3) contained within the X. laevis oocytes were investigated through the microelectrode voltage-clamp approach. […] We also determined the effects of JZTX-X on Ito potassium channels in rat DRG neurons; those current amplitudes were inhibited by 54.4±6.8% when 500 nM JZTX-X was applied (Fig. 3K, n = 5).
# Kv1.2 = test: microelectrode voltage-clamp, Xenopus laevis oocytes, Kv1.2; conditions: 10 μM, 300-ms depolarization to +20 mV from -90 mV, pH 7.5, 19-23°C, n = 3
# Protocol: as §1, §2, §3
# Kv4.3 = target: T1, Kv4.3 (Rattus norvegicus, UniProt Q62897); test: microelectrode voltage-clamp, Xenopus laevis oocytes, Kv4.3; conditions: +20 mV from -90 mV, n = 5, read-out: inhibition of Kv4.3 current
# T1 construct: expressed in transfected cells; host or cells: HEK293t
# T1 sequence (Q62897 1-655): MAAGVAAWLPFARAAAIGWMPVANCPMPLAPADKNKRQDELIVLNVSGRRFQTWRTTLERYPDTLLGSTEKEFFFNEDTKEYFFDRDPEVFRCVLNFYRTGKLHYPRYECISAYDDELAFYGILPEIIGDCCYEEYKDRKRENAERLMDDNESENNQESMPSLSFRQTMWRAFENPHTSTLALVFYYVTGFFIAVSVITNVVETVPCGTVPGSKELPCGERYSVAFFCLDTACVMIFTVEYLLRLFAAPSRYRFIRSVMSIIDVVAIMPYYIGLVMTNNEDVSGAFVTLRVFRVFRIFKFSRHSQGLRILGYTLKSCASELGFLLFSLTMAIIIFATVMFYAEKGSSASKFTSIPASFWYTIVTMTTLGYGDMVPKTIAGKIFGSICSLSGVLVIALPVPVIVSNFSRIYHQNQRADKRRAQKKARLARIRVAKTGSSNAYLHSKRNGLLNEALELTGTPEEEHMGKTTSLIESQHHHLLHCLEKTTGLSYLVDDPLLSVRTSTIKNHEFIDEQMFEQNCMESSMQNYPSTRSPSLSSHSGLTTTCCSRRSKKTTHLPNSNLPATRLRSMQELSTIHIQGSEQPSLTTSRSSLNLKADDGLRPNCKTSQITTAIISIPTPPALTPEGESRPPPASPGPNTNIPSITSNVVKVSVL
# Source text: Rat cDNA genes encoding Kv4.2 (Accession: NM_031730.2) and Kv4.3 (Accession: AB003587.1) were subcloned to vector pcDNA3.1. In addition, human cDNA genes encoding Nav1.7 (Accession: DQ857292.1) and Nav1.5 (Accession: AB158469.2) were subcloned to vectors pcDNA3.1-mod and pcDNA3.1, separately. Then, Kv4.2, Kv4.3, Nav1.5 and Nav1.7 constructs were transiently transfected into the human embryonic kidney 293t (HEK293t) cells using lipofectamine 2000 (Invitrogen, USA) in accordance with manufacturer protocols. Thereafter, HEK293 cells were inoculated within Dulbecco’s modified Eagle’s medium (DMEM) containing 10% fetal bovine serum (FBS) at 5% CO2 and 37°C. The Kv4.3 channel and the Kv4.2 counterpart were then transfected in the absence of β subunit. Subsequently, cells were incubated with a DNA-lipofectamine mixture (one reporter plasmid for green fluorescence protein and channel constructs) for 4-6 h, and were washed with the fresh medium.
# Briefly, plasmids were linearized, and transcription was carried out according to the standardized protocol. Afterwards, the capped cRNAs that encoded the related ion channels were prepared. […]
smiles,measurement,setting,value
"CC(C)C[C@@H]1NC(=O)[C@H](CCCCN)NC(=O)[C@H](Cc2ccc(O)cc2)NC(=O)[C@@H]2CSSC[C@@H]3NC(=O)[C@H](Cc4ccc(O)cc4)NC(=O)[C@H](Cc4ccccc4)NC(=O)CNC(=O)[C@H](C)NC(=O)[C@H](CSSC[C@H](NC(=O)[C@@H](N)CC(C)C)C(=O)N[C@@H](CO)C(=O)N[C@@H](CCCNC(=N)N)C(=O)N[C@@H](CCC(=O)O)C(=O)NCC(=O)N[C@@H](CCC(=O)O)C(=O)N[C@@H](Cc4ccccc4)C(=O)N2)NC(=O)[C@H](CSSC[C@@H](C(=O)N[C@@H](Cc2ccc(O)cc2)C(=O)N[C@@H](CCCNC(=N)N)C(=O)N[C@@H](CC(N)=O)C(=O)O)NC(=O)[C@H](Cc2c[nH]cn2)NC(=O)[C@H](CC(C)C)NC(=O)[C@H](C(C)C)NC(=O)[C@H](Cc2ccccc2)NC(=O)[C@H](C)NC(=O)[C@H](CCCCN)NC3=O)NC(=O)[C@H](CCCCN)NC(=O)[C@H](CCCNC(=N)N)NC1=O [JZTX-X, Jingzhaotoxin-X] (H-LCSREGEFCYKLRKCCAGFYCKAFVLHCYRN-OH; disulfide 2-16, 9-21, 15-28; N-terminus assumed)",inhibition of Kv1.3 current,Kv1.3,less than 5%
same,inhibition of Kv1.2 current,Kv1.2,less than 5%
same,inhibition at 1 µM,Kv4.3,72.4 ± 4.8%
